Patent US10813354B2, “Herbicidal pyridazinone compounds” (SYNGENTA PARTICIPATIONS AG, priority 2016, dated 2020)

Columns and labels:
Format in all cases: in vivo
Settings in all cases: sprayed after 10 days cultivation, evaluated after 14 days
[1] = tested on: ECHCG (Echinochloa crus-galli); test: Post-emergence glasshouse herbicide test on ECHCG
Experimental: (§1) Seeds of a variety of test species HORVW (Hordeum vulgare—barley), ABUTH (Abutilon theophrasti), AMARE (Amaranthus retroflexus) and ECHCG (Echinochloa crus-galli) were sown in standard soil in pots. After cultivation for 10 days cultivation under controlled conditions in a glasshouse (at 24/16° C., day/night; 14 hours light; 65% humidity), the plants were sprayed with an aqueous spray solution derived from the formulation of the technical active ingredient in 0.6 ml acetone and 45 ml formulation solution containing 10.6% Emulsogen EL (Registry number 61791-12-6), 42.2% N-methyl pyrrolidone, 42.2% dipropylene glycol monomethyl ether (CAS RN 34590-94-8) and 0.2% X-77 (CAS RN 11097-66-8).
(§2) The test plants were then grown in a glasshouse under controlled conditions in a glasshouse (at 24/16° C., day/night; 14 hours light; 65% humidity) and watered twice daily. After 14 days, the test was evaluated (100=total damage to plant; 0=no damage to plant).

[2] = tested on: HORVW (Hordeum vulgare—barley); test: Post-emergence glasshouse herbicide test, crop damage on barley
Experimental: as §1, §2

[3] = tested on: AMARE (Amaranthus retroflexus); test: Post-emergence glasshouse herbicide test on AMARE
Experimental: as §1, §2

[4] = tested on: ABUTH (Abutilon theophrasti); test: Post-emergence glasshouse herbicide test on ABUTH
Experimental: as §1, §2

| Structure (SMILES) | ECHCG damage to plant (100=total damage to plant; 0=no damage to plant) ([1]; Rate 125 g/ha) | ECHCG damage to plant (100=total damage to plant; 0=no damage to plant) ([1]; Rate 250 g/ha) | HORVW damage to plant (100=total damage to plant; 0=no damage to plant) ([2]; Rate 125 g/ha) | HORVW damage to plant (100=total damage to plant; 0=no damage to plant) ([2]; Rate 250 g/ha) | AMARE damage to plant (100=total damage to plant; 0=no damage to plant) ([3]; Rate 125 g/ha) | AMARE damage to plant (100=total damage to plant; 0=no damage to plant) ([3]; Rate 250 g/ha) | ABUTH damage to plant (100=total damage to plant; 0=no damage to plant) ([4]; Rate 125 g/ha) | ABUTH damage to plant (100=total damage to plant; 0=no damage to plant) ([4]; Rate 250 g/ha) |
| --- | --- | --- | --- | --- | --- | --- | --- | --- |
| COc1ccc(-n2nc(C)cc(C(=O)C3C(=O)CC(C)CC3=O)c2=O)cc1OC (centres unmarked) [Compound 1.2] | 100 | 100 | 0 | 0 | 100 | 100 | 100 | 100 |
| COc1ccc(-n2nc(C)cc(C(=O)C3C(=O)CC(C)(C)CC3=O)c2=O)cc1OC [Compound 1.4] | 100 | 100 | 0 | 10 | 100 | 100 | 100 | 100 |
| COc1ccc(-n2nc(C)cc(C(=O)C3C(=O)C(C)(C)C(=O)C(C)(C)C3=O)c2=O)cc1OC [Compound 1.5] | 90 | 90 | 0 | 0 | 100 | 100 | 100 | 100 |
| COc1ccc(-n2nc(C)cc(C(=O)C3C(=O)C4CCC(C4)C3=O)c2=O)cc1OC (centres unmarked) [Compound 1.1, 3-[2-(3,4-dimethoxyphenyl)-6-methyl-3-oxo-pyridazine-4-carbonyl]bicyclo[3.2.1]octane-2,4-dione] | 100 | 100 | 0 | 0 | 100 | 100 | 100 | 100 |
| COc1ccc(-n2nc(C)cc(C(=O)C3C(=O)CCCC3=O)c2=O)cc1OC [Compound 1.3, 2-[2-(3,4-Dimethoxyphenyl)-6-methyl-3-oxo-pyridazine-4-carbonyl]cyclohexane-1,3-dione] | 100 | 100 | 0 | 0 | 100 | 100 | 100 | 100 |
| COc1ccc(-n2nc(C3CC3)cc(C(=O)C3C(=O)C4CCC(C4)C3=O)c2=O)cc1OC (centres unmarked) [Compound 1.9] | 100 | 100 | 0 | 10 | 90 | 100 | 100 | 100 |
| COc1ccc(-n2nc(C3CC3)cc(C(=O)C3C(=O)C(C)(C)C(=O)C(C)(C)C3=O)c2=O)cc1OC [Compound 1.11, 6-[6-cyclopropyl-2-(3,4-dimethoxyphenyl)-3-oxo-pyridazine-4-carbonyl]-2,2,4,4-tetramethyl-cyclohexane-1,3,5-trione] | 100 | 100 | 0 | 0 | 100 | 100 | 100 | 100 |
